Laboratory results: the NIST ThermoML archive (doi:10.1021/je050488p)
± gives the expanded uncertainty stated by the source.

Conditions: Crystal; visual observation

Compound `O=P1(CO)Oc2ccccc2-c2ccccc21` (stereo unspecified) [6-(hydroxymethyl)dibenzo[c,e][1,2]oxaphosphinine 6-oxide] has a Normal melting temperature of 158.50 ± 1.5 °C.
